Legend:
PLCγ1 phosphorylation = assay: Inhibition of PLCγ1 phosphorylation in Jurkat cells; type: cell-based, human; conditions: anti-CD3
Experimental: Jurkat human acute T cell leukemia cell line (ATCC, TIB-152) was cultured in RPMI 1640 medium supplemented with Penicillin-Streptomycin (Gibco) and 10% fetal bovine serum (FBS) at 37° C. and 5% CO2. […] The cell pellet was resuspended in NP40 lysis buffer (Invitrogen) containing protease and phosphatase inhibitors cocktail (Cell Signaling Technology), incubated for 30 minutes on ice, and centrifuged at 15, 000×g for 10 minutes. The lysate supernatant from each condition containing 50 μg of total protein was resolved on an 8% Bis-Tris gel (Invitrogen) under reducing condition and transferred onto a nitrocellulose membrane (Invitrogen) using an iBlot2 gel transfer device. Unless specified otherwise, all reagents described above were purchased from Thermo Fisher Scientific. Membranes were blocked for 1 hour at room temperature and incubated overnight at 4° C. with primary antibodies (1:1000 dilution) in Odyssey blocking buffer (LI-COR) with 0.2% Tween 20. Membranes were washed 4 times (5 min each) in Tris-buffered saline, 0.10% Tween 20 and incubated with IRDye 800CW Anti-Rabbit IgG and IRDye 700CW Anti-Mouse IgG (LI-COR) secondary antibodies (1:20,000 dilution) for 1 hour at room temperature. After washes, membranes were imaged in the LI-COR Odyssey® Fc Imaging System. […]

ITK = target: T1, ITK (Homo sapiens, UniProt Q08881); assay: Dialysis assay; type: biochemical; conditions: 24 h dialysis
T1 sequence (Q08881 1-620): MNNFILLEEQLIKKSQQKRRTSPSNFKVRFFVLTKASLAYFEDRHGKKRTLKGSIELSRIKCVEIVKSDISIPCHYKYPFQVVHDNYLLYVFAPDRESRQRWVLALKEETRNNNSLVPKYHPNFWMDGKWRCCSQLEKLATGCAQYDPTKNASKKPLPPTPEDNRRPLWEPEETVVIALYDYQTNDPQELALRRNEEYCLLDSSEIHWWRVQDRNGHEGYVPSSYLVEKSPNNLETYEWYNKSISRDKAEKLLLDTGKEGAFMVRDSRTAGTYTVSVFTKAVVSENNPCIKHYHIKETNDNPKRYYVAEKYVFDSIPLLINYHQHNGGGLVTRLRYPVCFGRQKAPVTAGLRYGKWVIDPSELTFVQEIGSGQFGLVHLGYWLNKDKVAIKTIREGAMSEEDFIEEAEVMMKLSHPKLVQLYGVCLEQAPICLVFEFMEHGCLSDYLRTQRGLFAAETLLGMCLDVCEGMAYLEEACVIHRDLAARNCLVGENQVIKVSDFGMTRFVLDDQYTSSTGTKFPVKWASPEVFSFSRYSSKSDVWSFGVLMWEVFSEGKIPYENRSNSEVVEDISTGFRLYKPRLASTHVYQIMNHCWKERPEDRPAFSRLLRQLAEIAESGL
Experimental: Dialysis was performed at room temperature against the same buffer for 24 hours in a Slide-A-Lyzer dialysis device (10 kDa MWCO) with three changes of the dialysis buffer giving a nominal final dialysis factor of 8×10^6. Un-dialyzed control samples incubated in parallel for 24 hours. ITK activity was measured following dialysis in a continuous sampling format using the microfluidic assay and 300 μM ATP and 2 μM Scrtide peptide substrate. The enzymatic velocity of treated samples was normalized to the appropriate control rate and expressed as a percent.

ERK phosphorylation = assay: pERK flow cytometry after CD3/28 crosslinking; type: cell-based; conditions: Homo sapiens, mean of three donors
Experimental: PBMCs were pelleted (400×g at 4° C. for 5 minutes) and resuspended in RPMI+10% heat-inactivated fetal bovine serum (FBS) at 14.3×10^6 cells/mL; 70 μL (1×10^6 cells) were plated in a 96 well U bottom plate and incubated at 37° C. for 1 hour. […] CD3-biotin and CD28-biotin were prepared together at 10 μg/mL each, which is 10× the final concentration; 10 μL antibodies were added to the cells and incubated at 37° C. for 15 minutes. Avidin was prepared at 500 μg/mL, which is 10× the final concentration; 10 μL avidin were added to the cells and incubated at 37° C. for 5 minutes to induce TCR crosslinking. A total volume of 100 μL cells were transferred to 200 μL warm 2.4% paraformaldehyde (PFA) in deep well blocks. Pipetting was performed using a liquidator 96 to add reagents to the entire plate with uniform timing. Cells were fixed with PFA at 37° C. for 10 minutes. Cells were pelleted (1000× g for 5 minutes), and the plate was aspirated leaving approximately 100 μL residual volume. The plate was then vigorously vortexed for 10 seconds, and 1 mL −20° C. methanol was added to each well. Cells were stored at […] for approximately 1 month. […] Inhibition was measured by construction of a concentration response curve of the Log base 10 transformed values of the molar concentration of inhibitor. […]

SMILES: C=CC(=O)N1CCCN(C(=O)c2cc(Sc3cnc(NC(=O)C4CC4)s3)c(C)cc2OC)C[C@H]1C [CPI-818]
- phosphorylation of PLCγ1 (PLCγ1 phosphorylation): dose-dependently inhibited
- ITK activity after extensive dialysis (ITK): kinase activity was not recovered
- ITK activity after extensive dialysis (ITK; listed as CP-818): remained inhibited
- IC50 (ERK phosphorylation): 39 nM

Reference: patent US20250213587A1, “ITK INHIBITORS FOR INCREASING TH1 CELL ACTIVITY” (Corvus Pharmaceuticals, Inc., priority 2022, published 2025)
